Paper PMC7018972, “Novel and selective inactivators of Triosephosphate isomerase with anti-trematode activity” (Scientific Reports, 2020)
“Also recorded” adds a separate entry of the source. Marks after values point to notes of the source that are not given here.

Assays:
[1] = tested on: murine macrophages and human peripheral blood mononuclear cells; design: method as in PMID 22536349; details: at 100 µM; cited from earlier work
S. mansoni somules = S. mansoni somules phenotypic screen in vitro; assay type: cell-based, Schistosoma mansoni; details: for SOMULES SEVERITY SCORE: Table 2S, 10 uM
Excerpt: (§1) The NMRI isolate of S. mansoni was maintained by passage through Biomphalaria glabrata snails and 3–5 week-old, female Golden Syrian hamsters (Charles River, San Diego, CA) as intermediate and definite hosts, respectively. A dose of 600 infective larvae (cercariae) was used to infect hamsters. The acquisition, preparation and in vitro maintenance of S. mansoni post-infective larvae (schistosomula or somules) and adults have been already described[5],[50],[51]. Vertebrate animal maintenance and handling at the University of California San Diego Animal Care Facility were in accordance with protocols approved by the university’s Institutional Animal Care and Use Committee (IACUC).
Phenotypic screens with somules were performed as described[5],[50],[51]. Initially, 100 μL Basch medium, 100 U/ml penicillin, […] streptomycin, 4% heat-inactivated FBS (Corning Mediatech) and 1 μl compound in DMSO were added to clear, 96-well round-bottomed plates (Costar cat.# 3367). Then, 100 μL of the same medium containing 40–50 somules was added to mix the compound with somules (final concentration of DMSO was 0.5%). Assay plates were placed into plastic boxes humidified with wet tissue and then incubated at 37 °C in a 5% CO2 environment. Somules phenotypes were recorded every 24 h up to 72 h using an inverted microscope (Zeiss Axiovert 40 C).
(§2) Schistosome phenotypic responses were recorded employing a series of ‘descriptors,’ such as rounding, degeneration, overactivity, loss of translucency and changes in motility, as described previously[5],[50],[51],[53]. To allow for comparisons of compound activity, each descriptor was awarded a value of 1 and these were added up to a maximum ‘severity score’ of 4. Evidence of degeneracy or death was awarded the maximum score of 4. Scores were averaged across duplicate wells for each compound (see details in the supporting information).

[2] = tested on: adult form of F. hepatica; assay: Ex-vivo assay in the adult form of F. hepatica; assay type: cell-based, Fasciola hepatica
Procedure: F. hepatica were collected from natural infections of cattle obtained from Casablanca slaughterhouse in Paysandú, Uruguay[49]. […] After flukes emptied their gut content (i.e. the gut was not dark anymore) they were transferred to 6 well plates (one fluke per well) with 2 mL of RPMI 1640 media with 200 U/mL Penicillin G sulfate, […] streptomycin sulfate, 500 ng/mL amphotericin B and 10 mM glucose at 37 °C. […] The antiparasitic efficacy was expressed as the percentage reduction of the number of flukes in the treated group compared with the control group.

NEJ = tested on: NEJ; design: method as in PMID 22536349; details: 48 h, fixed dose of 20 µM; cited from earlier work
[3] = tested on: Echinococcus granulosus protoscolex; design: method as in PMID 22536349; details: 48 h, fixed dose of 20 µM; cited from earlier work
[4] = tested on: thioredoxin glutathione reductase; design: method as in PMID 22536349; details: cited from earlier work
S. mansoni adults = S. mansoni adults phenotypic screen ex vivo; assay type: cell-based, Schistosoma mansoni; details: for ADULTS SEVERITY SCORE: Table 2S, 5 uM
Excerpt: as §1
Phenotypic screens with 42-day-old, adult parasites were performed in 24-well plates (Costar cat.# 3526) containing the above medium and approximately five adult males and two females per well. Compound was added in a volume of up to 1 μL DMSO at a concentration of 5 µM (0.05% DMSO final). Assay plates were incubated at 37 °C in a 5% CO2 environment. Parasite phenotypes were recorded at 4, 8 and 24 h using a Zeiss Axiovert 40 C.
as §2

[5] = Acute oral toxicity (up-and-down); assay type: in vivo; details: mice
Procedure: Briefly, healthy young adult male BALB/c mice (30 days old, 25 to 30 g) were used in this study. […] The animal was fasted, maintained, and observed for 14 days according to the OECD guidelines. If the mouse survived for the first 48 h, another animal received the same dose. If this was repeated, a third animal was dosed with 2,000 mg/kg and also observed for 14 days. The experiment ends at 14 days post-administration, if there are no signs of toxicity, the (LD50) is the administered dose, if not, the software AOT AOT425 Stat program recommendation was followed. […] In parallel, sodium oleate was dissolved in phosphate buffer and left in an orbital shaker for 12 h at room temperature. The former was then added to the evaporated residue, and the mixture was homogenized and placed in an ultrasonic bath at full power for 30 min. The sample was kept at room temperature until use.

For `Cc1ccc(-c2nsc(S(=O)(=O)c3ccc(C)cc3)n2)cc1` [Compound 187], the toxicity in words [1] is listed as “non-toxic”, the “S. mansoni somules severity score” value (S. mansoni somules; Table 2, 24 h, score 0 to maximum 4) is listed as 4 (24 h)^## and the “SOMULES SEVERITY SCORE” value (S. mansoni somules; 24 h) is listed as 4. The “SOMULES SEVERITY SCORE” value (S. mansoni somules; 48 h) was 4, the “SOMULES SEVERITY SCORE” value (S. mansoni somules; 3d) was 4 and the “effect on S. mansoni somules in words” value (S. mansoni somules; in the first 24 h) was “lethal to somules”. For the same compound, the “effect on adult F. hepatica in words” value ([2]; after 24 h, 10 µM) was “death of all the parasites”, the “effect on adult F. hepatica in words” value ([2]; first 4 h at 10 µM) was “parasites were affected” and the “effect on NEJ in words” value (NEJ) was “showed effect”. The “effect on Echinococcus granulosus protoscolex in words” value [3] was “showed effect”, the “inhibition of thioredoxin glutathione reductase in words” value [4] was “moderate inhibitor” and the “effect on S. mansoni adults in words” value (S. mansoni adults; 24 h, 5 µM) was “decreased the motility of adults and the ability of their oral and ventral suckers to adhere; also recorded: decreased motility and loss of their ventral sucker adherence to the plate floor”. For the same compound, the “ADULTS SEVERITY SCORE” value (S. mansoni adults; 4 h) was 0, the “ADULTS SEVERITY SCORE” value (S. mansoni adults; 8 h) was 0 and the “ADULTS SEVERITY SCORE” value (S. mansoni adults; 24 h) was 2. For the same compound, the “acute oral toxicity in words” value [5] was “low toxicity” and the LD50 ([5]; up-and-down, 14 days) was at least 2000 mg/kg body weight.
